One assay concerns NCI-H358 (K-Ras G12C). Nature of the assay: CellTiter-Glo cell viability assay, NCI-H358. To be noted: Homo sapiens, NCI-H358, 120 h, NCI-H358, 5-day treatment; class symbols; read-out: Additional H358 Cell Viability assay data (K-Ras G12C, IC50). It is filed as cell-based, human. A digest of the protocol: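 Cells seeded, compound added directly, 5-day exposure. Plates to RT ~30 min, CellTiter-Glo luminescence read. Normalized to DMSO avg (x100); 4-parameter logistic fit.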

The target in another assay is K-Ras G12C (Homo sapiens (Human), UniProt P01116+P62937, G12C). Nature of the assay: Ras-Raf (BRAF RBD) disruption / FRET / MOA assay, KRAS G12C. To be noted: KRAS G12C; Ras-Raf disruption/FRET/MOA assay; read-out: IC50* KRAS G12C FRET data. Type of assay: biochemical. The essentials:
(§1)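 A 10-point, 3-fold dilution series topping at 30 μM final was incubated 3 h at 25° C with the Ras/cyclophilin A/BRAF RBD mixture.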

The target of another assay is K-Ras G13C (Homo sapiens (Human), UniProt P01116+P62937, G13C). Briefly: Ras-Raf (BRAF RBD) disruption / FRET / MOA assay, KRAS G13C. It is filed as biochemical. The note with it: KRAS G13C; Ras-Raf disruption/FRET/MOA assay; read-out: IC50* KRAS G13C FRET data. A digest of the protocol:
as §1

For a further assay, the target named is KRAS G12D (Homo sapiens (Human), UniProt P01116+P62937, G12D). Nature of the assay: Ras-Raf (BRAF RBD) disruption / FRET / MOA assay, KRAS G12D. It is filed as biochemical. The note with it: Ras-Raf disruption/FRET/MOA assay; class symbols; read-out: KRAS G12D FRET data IC50. A digest of the protocol:
as §1

Another assay has as its target KRAS G12V (Homo sapiens (Human), UniProt P01116+P62937, G12V). Briefly: Ras-Raf (BRAF RBD) disruption / FRET / MOA assay, KRAS G12V. It is filed as biochemical. To be noted: read-out: IC50* KRAS G12V FRET data. A digest of the protocol:
as §1

Another assay addresses KRAS WT (Homo sapiens (Human), UniProt P01116+P62937). Nature of the assay: Ras-Raf (BRAF RBD) disruption / FRET / MOA assay, KRAS WT. It is filed as biochemical. To be noted: read-out: IC50* KRAS WT FRET data. The essentials:
as §1

A further assay has as its target KRAS G13D (Homo sapiens (Human), UniProt P01116+P62937, G13D). Briefly: Ras-Raf (BRAF RBD) disruption / FRET / MOA assay, KRAS G13D. It is filed as biochemical. To be noted: read-out: IC50* KRAS G13D FRET data. The essentials: as §1
The next assay deals with KRAS Q61H (Homo sapiens (Human), UniProt P01116+P62937, Q61H). Nature of the assay: Ras-Raf (BRAF RBD) disruption / FRET / MOA assay, KRAS Q61H. It is filed as biochemical. To be noted: Ras-Raf disruption/FRET/MOA assay; class symbols; read-out: KRAS Q61H FRET data IC50. The essentials: (§2)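 Compounds (30 μM top final, 10-point 3-fold dilutions) incubated 3 h at 25° C with nucleotide-loaded Ras, cyclophilin A and BRAF RBD. Detection with 10 nM anti-His Eu-W1024 and 50 nM anti-GST allophycocyanin over another 1.5 h. Lowered TR-FRET ratio relative to DMSO wells gives IC50.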

The next assay deals with NRAS Q61R (Homo sapiens (Human), UniProt P01111+P62937, Q61R). Nature of the assay: Ras-Raf (BRAF RBD) disruption / FRET / MOA assay, NRAS Q61R. It is filed as biochemical. The note with it: NRAS Q61R; Ras-Raf disruption/FRET/MOA assay; read-out: IC50* NRAS Q61R FRET data. The essentials: as §2
The target in the next assay is NRAS WT (Homo sapiens (Human), UniProt P01111+P62937). Nature of the assay: Ras-Raf (BRAF RBD) disruption / FRET / MOA assay, NRAS WT. The note with it: read-out: IC50* NRAS WT FRET data. It is filed as biochemical. The essentials:
as §2

Molecules are shown by their SMILES. Where only a bound is given, the exact number is not on record here.

Sequence of NRAS WT (P01111 whole entry): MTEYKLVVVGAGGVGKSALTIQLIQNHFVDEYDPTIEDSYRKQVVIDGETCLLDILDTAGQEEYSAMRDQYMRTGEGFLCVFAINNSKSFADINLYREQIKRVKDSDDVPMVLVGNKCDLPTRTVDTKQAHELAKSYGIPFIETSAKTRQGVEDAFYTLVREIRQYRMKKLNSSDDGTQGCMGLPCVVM
Sequence of NRAS WT (P62937 whole entry): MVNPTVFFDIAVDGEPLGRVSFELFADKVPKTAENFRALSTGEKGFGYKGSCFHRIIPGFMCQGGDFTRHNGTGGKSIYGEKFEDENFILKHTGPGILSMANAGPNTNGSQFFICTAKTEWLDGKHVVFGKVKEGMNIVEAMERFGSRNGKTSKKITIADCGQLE
Sequence of KRAS Q61H (P01116-2 other isoform, or with tags, fused parts or gaps Q61H): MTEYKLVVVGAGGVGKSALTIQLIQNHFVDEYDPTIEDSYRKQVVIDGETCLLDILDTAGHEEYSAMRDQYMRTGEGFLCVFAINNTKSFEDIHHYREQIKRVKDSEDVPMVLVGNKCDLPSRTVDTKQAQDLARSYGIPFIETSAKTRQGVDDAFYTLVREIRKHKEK
Sequence of KRAS Q61H (P62937 whole entry): as the sequence (P62937 whole entry) above
Sequence of KRAS G13D (P01116-2 other isoform, or with tags, fused parts or gaps G13D): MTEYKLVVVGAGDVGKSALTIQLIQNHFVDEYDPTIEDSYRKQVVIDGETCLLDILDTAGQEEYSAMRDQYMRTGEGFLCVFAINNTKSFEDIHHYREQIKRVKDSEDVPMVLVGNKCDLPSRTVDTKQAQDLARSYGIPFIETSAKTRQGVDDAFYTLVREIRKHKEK
Sequence of KRAS G13D (P62937 whole entry): as the sequence (P62937 whole entry) above
Sequence of K-Ras G12C (P01116-2 other isoform, or with tags, fused parts or gaps G12C): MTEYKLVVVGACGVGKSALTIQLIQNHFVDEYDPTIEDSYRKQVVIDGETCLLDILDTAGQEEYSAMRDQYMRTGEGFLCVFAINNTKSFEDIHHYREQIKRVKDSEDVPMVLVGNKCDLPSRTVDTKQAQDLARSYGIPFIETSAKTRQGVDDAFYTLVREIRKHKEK
Sequence of K-Ras G12C (P62937 whole entry): as the sequence (P62937 whole entry) above
Sequence of K-Ras G13C (P01116-2 other isoform, or with tags, fused parts or gaps G13C): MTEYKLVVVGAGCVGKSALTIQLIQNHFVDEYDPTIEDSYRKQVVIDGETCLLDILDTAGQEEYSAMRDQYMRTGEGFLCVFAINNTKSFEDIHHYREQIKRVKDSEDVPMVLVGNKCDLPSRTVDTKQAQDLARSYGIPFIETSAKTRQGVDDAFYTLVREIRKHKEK
Sequence of K-Ras G13C (P62937 whole entry): as the sequence (P62937 whole entry) above
Sequence of KRAS G12V (P01116-2 other isoform, or with tags, fused parts or gaps G12V): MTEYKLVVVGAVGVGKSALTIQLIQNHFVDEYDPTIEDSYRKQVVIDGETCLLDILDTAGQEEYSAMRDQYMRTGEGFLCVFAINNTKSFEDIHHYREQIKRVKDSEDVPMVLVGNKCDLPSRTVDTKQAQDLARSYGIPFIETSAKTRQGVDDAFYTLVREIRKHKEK
Sequence of KRAS G12V (P62937 whole entry): as the sequence (P62937 whole entry) above
Sequence of KRAS G12D (P01116-2 other isoform, or with tags, fused parts or gaps G12D): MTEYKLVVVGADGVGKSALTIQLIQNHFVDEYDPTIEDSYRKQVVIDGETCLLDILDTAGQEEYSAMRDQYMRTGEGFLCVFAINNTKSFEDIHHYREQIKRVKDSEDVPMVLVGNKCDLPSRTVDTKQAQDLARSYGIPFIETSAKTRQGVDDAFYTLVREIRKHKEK
Sequence of KRAS G12D (P62937 whole entry): as the sequence (P62937 whole entry) above
Sequence of NRAS Q61R (P01111 whole entry Q61R): as the sequence (P01111 whole entry) above, with Q61R counted along it
Sequence of NRAS Q61R (P62937 whole entry): as the sequence (P62937 whole entry) above
Sequence of KRAS WT (P01116-2 other isoform, or with tags, fused parts or gaps): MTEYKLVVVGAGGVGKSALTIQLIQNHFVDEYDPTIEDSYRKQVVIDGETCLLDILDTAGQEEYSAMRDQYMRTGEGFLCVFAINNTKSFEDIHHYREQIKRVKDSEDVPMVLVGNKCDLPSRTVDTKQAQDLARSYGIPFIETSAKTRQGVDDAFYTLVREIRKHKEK
Sequence of KRAS WT (P62937 whole entry): as the sequence (P62937 whole entry) above

`C=CS(=O)(=O)N1CC[C@H](C(=O)N(C)[C@H](C(=O)N[C@H]2Cc3cc(O)cc(c3)-c3ccc4c(c3)c(c(-c3cncnc3)n4CC)CC(C)(C)COC(=O)[C@@H]3CCCN(N3)C2=O)C(C)C)C1` [Example A172]: the IC50 is 10 to 100 nM with NCI-H358 (K-Ras G12C); 10 to 100 nM at K-Ras G12C; 10 to 100 nM at K-Ras G13C; > 10000 nM at KRAS G12D; 1000 to 10000 nM at KRAS G12V; 1000 to 10000 nM at KRAS WT. In addition, the IC50 is > 10000 nM on KRAS G13D, 100 to 1000 nM at KRAS Q61H, > 10000 nM on NRAS Q61R and 1000 to 10000 nM at NRAS WT.
Turning to `CCn1c(-c2cccnc2[C@H](C)OC)c2c3cc(ccc31)-c1cccc(c1)C[C@H](NC(=O)[C@H](C(C)C)N1CC[C@@]3(CCN(C(=O)C#C[C@@H]4COCCN4C4COC4)C3)C1=O)C(=O)N1CCC[C@H](N1)C(=O)OCC(C)(C)C2` [Example A566], the IC50 is < 10 nM in the assay with NCI-H358 (K-Ras G12C); 10 to 100 nM at K-Ras G12C; 100 to 1000 nM on K-Ras G13C; 1000 to 10000 nM on KRAS G12D; 1000 to 10000 nM on KRAS G12V; 1000 to 10000 nM on KRAS WT. In addition, the IC50 was 1000 to 10000 nM at KRAS G13D, 100 to 1000 nM at KRAS Q61H, 1000 to 10000 nM at NRAS Q61R and 1000 to 10000 nM on NRAS WT.
Take `C=CC(=O)N1CCC2(C1)CN(C(=O)N(C)[C@H](C(=O)N[C@H]1Cc3nc(cs3)-c3ccc4c(c3)c(c(-c3cccnc3[C@H](C)OC)n4CC(F)(F)F)CC(C)(C)COC(=O)[C@@H]3CCCN(N3)C1=O)C(C)C)C2` [Example A603]: the IC50 in the assay with NCI-H358 (K-Ras G12C) is 10 to 100 nM; at K-Ras G12C it was 10 to 100 nM; on K-Ras G13C, 10 to 100 nM; at KRAS G12D it was 100 to 1000 nM; at KRAS G12V it was 100 to 1000 nM; on KRAS WT, 10 to 100 nM. Also, the IC50 at KRAS G13D lay in the range of 100 to 1000 nM; on KRAS Q61H, 10 to 100 nM; on NRAS Q61R it was 10 to 100 nM; at NRAS WT it was 10 to 100 nM.
For `CCn1c(-c2cccnc2[C@H](C)OC)c2c3cc(ccc31)-c1cccc(c1)C[C@H](NC(=O)[C@H](C(C)C)N(C)C(=O)N1CCC13CN(C(=O)C#CC(C)(C)N(C)C)C3)C(=O)N1CCC[C@H](N1)C(=O)OCC(C)(C)C2` [Example A672], the IC50 lay in the range of 10 to 100 nM in the assay with NCI-H358 (K-Ras G12C); 10 to 100 nM on K-Ras G12C; 100 to 1000 nM at K-Ras G13C; 1000 to 10000 nM on KRAS G12D; 100 to 1000 nM on KRAS G12V; 100 to 1000 nM on KRAS WT. Further, the IC50 fell in the range of 100 to 1000 nM at KRAS G13D, 10 to 100 nM at KRAS Q61H, 100 to 1000 nM on NRAS Q61R and 100 to 1000 nM at NRAS WT.
`C=CC(=O)N(C)[C@H]1CC1N(C)C(=O)N(C)[C@H](C(=O)N[C@H]1Cc2nc(cs2)-c2ccc3c(c2)c(c(-c2cccnc2[C@H](C)OC)n3CC)CC(C)(C)COC(=O)[C@@H]2CCCN(N2)C1=O)C(C)C` (some centres unmarked) [Example A738]: the IC50 in the assay with NCI-H358 (K-Ras G12C) is < 10 nM; at K-Ras G12C, 100 to 1000 nM; at K-Ras G13C, 100 to 1000 nM; on KRAS G12D it was 1000 to 10000 nM; on KRAS G12V it was 1000 to 10000 nM; on KRAS WT, 100 to 1000 nM. Also, the IC50 on KRAS G13D fell in the range of 1000 to 10000 nM; on KRAS Q61H, 100 to 1000 nM; at NRAS Q61R, 100 to 1000 nM; at NRAS WT it was 100 to 1000 nM.

Source of the values: patent US11566007B2, “Ras inhibitors” (Revolution Medicines, Inc., priority 2019, dated 2023).
